Test results from paper PMC7747769 (AIChE journal. American Institute of Chemical Engineers, 2019).

Key:
DR1 [1] = settings: DR1 and HA306–318 peptide; cited from earlier work
DR1 [2] = assay type: binding, human

DNP-PKYVKQNTLKLAT [HA306–318]
IC50 (DR1 [1]): ~34 nM | SDS stability of DR1 complex (DR1 [2]): migrated as an SDS-stable heterodimer
